In ChEMBL document CHEMBL5728176, “Substituted pyrimidines for treating bacterial infections” (2020) one finds IC50 data, which are given here for 1 compound.

The nature of the test: nhibition Assay against Klebsiella pneumoniae LpxC: LpxC inhibition assays were performed using liquid chromatography with tandem mass spectrometry. Assays were performed, in duplicate, in opaque, 96-well microplates in a total assay volume of 50 μL. The incubation mixture contained: LpxC (0.2 nM Kpn), 0.8 μM UDP-3-O—[(R)-3-hydroxymyristoyl]-N-acetyl-glucosamine, 40 mM Bis-Tris/HCl buffer (pH 5.9), 5 mM sodium phosphate buffer (NaH2PO4/Na2HPO4, pH 7.0), 1 mM DTT, 0.1% (w/v) fatty-acid free BSA, 10% DMSO (v/v, with or without compound). The reactions were incubated at 22° C. for 60 minutes (with mild shaking), then terminated by the addition of 25 μL 0.25 N HCl. Samples were analyzed using a LC-MS system to measure native LpxC substrate and reaction product. IC50 analysis was done using GeneData Screener and a four parameter variable slope normalized to controls. Test compounds were prepared as 8-point dose-response curves (factor dilution 2) in triplicate, starting at 1 μM final concentration. Each assay plate included 6 wells used for the Z′ factor calculation, 3 as a positive control for the assay and 3 as a negative control. The robustness was calculated as the median Z′ factor for 5 plates. Chir-90, a well-known inhibitor of LpxC activity was used as inhibitor control standard.

As to `C[C@@H](O)[C@H](NC(=O)c1ccc(C#Cc2ccc(CN3CCOCC3)cc2)cc1)C(=O)NO`, the IC50 is < 1 nM.
